Source: PubChem BioAssay AID330 (DTP/NCI, 2004)
“And” between values parts separate entries of the source, which are not always exact repeats. Equal entries are not always repeated. Toxic doses and inconclusive results are not listed. Rule for the calls: active = survival T/C of 150% or more; inactive = T/C below 125% in these data. Bridge positions count the residues as written; N and C are the ends. Square brackets hold non-standard residues; d marks the D form. Peptide text beside a SMILES is read from it. * marks the point of attachment. Cya = N[CH](CS(=O)(=O)O)C(=O)O; X6 = CC(C)CCCCCCCC(O)CC(=O)*; GABA = NCCCC(=O)O

System: P388 leukemia ip, CD2F1 mice, survival T/C
Test: NCI In Vivo Anticancer Drug Screen. Data for tumor model P388 Leukemia (intraperitoneal) in CD2F1 (CDF1) mice
Settings: endpoint: median survival time, higher = longer survival
Procedure, shortened: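 Mice carrying the transplanted tumor received test compound or vehicle. Survival was recorded in each group, and the value is the treated-group measurement divided by that of the vehicle-treated control group.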

[1] = dose: 50.0 mg/kg/injection, schedule: Q01DX005 (ip), vehicle: saline with Tween-80
[2] = dose: 100.0 mg/kg/injection, schedule: Q01DX005 (ip), vehicle: saline with Tween-80
[3] = dose: 200.0 mg/kg/injection, schedule: Q01DX005 (ip), vehicle: saline with Tween-80
[4] = dose: 6.25 mg/kg/injection, schedule: Q01DX005 (ip), vehicle: saline with Tween-80
[5] = dose: 12.5 mg/kg/injection, schedule: Q01DX005 (ip), vehicle: saline with Tween-80
[6] = dose: 50.0 mg/kg/injection, schedule: Q01DX009 (ip), vehicle: saline with Tween-80
[7] = dose: 100.0 mg/kg/injection, schedule: Q01DX009 (ip), vehicle: saline with Tween-80
[8] = dose: 200.0 mg/kg/injection, schedule: Q01DX009 (ip), vehicle: saline with Tween-80
[9] = dose: 25.0 mg/kg/injection, schedule: Q01DX009 (ip), vehicle: saline with Tween-80

Measured: T/C

Cc1c[n+]([O-])ccc1Br
inactive: dose: 6.25 mg/kg/injection, schedule: Q01DX009 (ip), vehicle: water 99 % of control | dose: 12.5 mg/kg/injection, schedule: Q01DX009 (ip), vehicle: water 90 % of control | dose: 25.0 mg/kg/injection, schedule: Q01DX009 (ip), vehicle: water 100 % of control | dose: 50.0 mg/kg/injection, schedule: Q01DX009 (ip), vehicle: water 101 % of control

Cc1c(-c2cnccn2)ssc1=S
inactive: [1] 103 % of control | [2] 99 % of control | [3] 103 % of control

Cc1ccc2[nH]c3nc4cc(C)c(C)cc4nc3c2c1
inactive: [4] 93 % of control | [5] 93 % of control | dose: 25.0 mg/kg/injection, schedule: Q01DX005 (ip), vehicle: saline with Tween-80 87 % of control | [1] 96 % of control | [2] 105 % of control | [3] 108 % of control

CN=C1c2ccccc2C2(c3ccccc3)C1N2C (centres undefined)
inactive: dose: 100.0 mg/kg/injection, schedule: Q04DX003 (ip), vehicle: saline with Tween-80 104 % of control | dose: 200.0 mg/kg/injection, schedule: Q04DX003 (ip), vehicle: saline with Tween-80 100 % of control

C=C1SC(=Nc2c(C)cc(C)cc2C)N(C(=O)c2sc3ccccc3c2Cl)C12CCCCC2
inactive: dose: 50.0 mg/kg/injection, schedule: Q01DX009 (ip), vehicle: suspension in saline 96 % of control | dose: 100.0 mg/kg/injection, schedule: Q01DX009 (ip), vehicle: suspension in saline 103 % of control | dose: 200.0 mg/kg/injection, schedule: Q01DX009 (ip), vehicle: suspension in saline 91 % of control

O=c1[nH]c(=O)c2nc3c([N+](=O)[O-])ccc(-c4cccc5ccccc45)c3nc2[nH]1
inactive: dose: 50.0 mg/kg/injection, schedule: Q01DX009 (ip), vehicle: saline 109 % of control | dose: 100.0 mg/kg/injection, schedule: Q01DX009 (ip), vehicle: saline 100 % of control

O=[N+]([O-])c1ccc(N=Nc2ccc(NNc3ccc([N+](=O)[O-])cn3)c3cc4ccccc4cc23)nc1
inactive: [1] 100 % of control | [2] 110 % of control

COC(=O)/C=c1\sc2n(c1=O)CCCCN=2
inactive: dose: 60.0 mg/kg/injection, schedule: Q01DX005 (ip), vehicle: Klucel (hydroxypropylcellulose) (HPC) 86 % of control | dose: 120.0 mg/kg/injection, schedule: Q01DX005 (ip), vehicle: Klucel (hydroxypropylcellulose) (HPC) 93 % of control | dose: 240.0 mg/kg/injection, schedule: Q01DX005 (ip), vehicle: Klucel (hydroxypropylcellulose) (HPC) 100 % of control

COc1cc(Br)cc(C(=O)O)c1OC
inactive: dose: 25.0 mg/kg/injection, schedule: Q01DX009 (ip), vehicle: other 101 % of control | dose: 50.0 mg/kg/injection, schedule: Q01DX009 (ip), vehicle: other 106 % of control | [6] 93 % of control | dose: 100.0 mg/kg/injection, schedule: Q01DX009 (ip), vehicle: other 102 % of control | [7] 93 % of control | [8] 100 % of control | dose: 400.0 mg/kg/injection, schedule: Q01DX009 (ip), vehicle: saline with Tween-80 102 % of control

O=C1c2ccccc2C(Br)CCC1Br (centres undefined)
inactive: dose: 100.0 mg/kg/injection, schedule: Q01DX009 (ip), vehicle: distilled water + Tween-80 + alcohol 115 % of control | dose: 200.0 mg/kg/injection, schedule: Q01DX009 (ip), vehicle: distilled water + Tween-80 + alcohol 115 % of control | dose: 400.0 mg/kg/injection, schedule: Q01DX009 (ip), vehicle: distilled water + Tween-80 + alcohol 113 % of control

Cc1cc2c(c(O)cc(=O)n2Cc2ccccc2)c(=O)n1Cc1ccccc1
inactive: dose: 50.0 mg/kg/injection, schedule: Q01DX005 (ip), vehicle: Klucel (hydroxypropylcellulose) (HPC) 102 % of control | dose: 100.0 mg/kg/injection, schedule: Q01DX005 (ip), vehicle: Klucel (hydroxypropylcellulose) (HPC) 94 % of control | dose: 200.0 mg/kg/injection, schedule: Q01DX005 (ip), vehicle: Klucel (hydroxypropylcellulose) (HPC) 100 % of control

O=[N+]([O-])c1ccc2c(NCCCCCCNc3c4ccccc4nc4cc([N+](=O)[O-])ccc34)c3ccccc3nc2c1
inactive: dose: 0.63 mg/kg/injection, schedule: Q01DX009 (ip), vehicle: other 121 % of control

CC(C)CCCCCCCC(O)CC(=O)NC(CS(=O)(=O)O)C(=O)NC(CC(C)C)C(=O)NCCCC(=O)NC(Cc1cnc[nH]1)C(=O)NC(C)C(=O)NC1C(=O)NC(C(C)O)C(=O)NC(Cc2cnc[nH]2)C(=O)NC(C)C(=O)NC(C(C)O)C(=O)OC1C (centres undefined) (X6-[Cya]L[GABA]HATTHAT; ester 6-C; configuration not given here)
inactive: dose: 0.38 mg/kg/injection, schedule: Q01DX005 (ip), vehicle: other 95 % of control | dose: 0.75 mg/kg/injection, schedule: Q01DX005 (ip), vehicle: other 102 % of control | dose: 1.5 mg/kg/injection, schedule: Q01DX005 (ip), vehicle: other 100 % of control | dose: 3.0 mg/kg/injection, schedule: Q01DX005 (ip), vehicle: other 100 % of control | dose: 6.0 mg/kg/injection, schedule: Q01DX005 (ip), vehicle: other 99 % of control

N#Cc1[nH]nc2nc[nH]c(=O)c12
inactive: dose: 100.0 mg/kg/injection, schedule: Q04DX002 (ip), vehicle: water 114 % of control | dose: 200.0 mg/kg/injection, schedule: Q04DX002 (ip), vehicle: water 113 % of control

NNC(=O)C(=O)n1ccnc1
inactive: [1] 95 % of control | [2] 102 % of control | [3] 101 % of control

O=C(O)c1c(Cl)c(Cl)c(Cl)c(Cl)c1-c1c2cc(Br)c(=O)c(Br)c-2oc2c(Br)c(O)c(Br)cc12
inactive: [1] 89 % of control | [2] 90 % of control

C/C=C1\CN2CCC34c5ccccc5N5C(C6C7CC8N(CCC89c8cccc(O)c8N(C(C)=O)C69)C/C7=C\C)OCC(C1CC23)C54 (centres undefined)
inactive: dose: 11.25 mg/kg/injection, schedule: Q01DX009 (ip), vehicle: saline with Tween-80 106 % of control | dose: 22.5 mg/kg/injection, schedule: Q01DX009 (ip), vehicle: saline with Tween-80 105 % of control | dose: 45.0 mg/kg/injection, schedule: Q01DX009 (ip), vehicle: saline with Tween-80 106 % of control | dose: 90.0 mg/kg/injection, schedule: Q01DX009 (ip), vehicle: saline with Tween-80 104 % of control

C=CC1C(C[C@@H]2c3cc(O)c(O)cc3CCN2C(C)=O)C(C(=O)OC)=CO[C@H]1OC1OC(CO)C(O)C(O)C1O (some centres undefined)
inactive: dose: 60.0 mg/kg/injection, schedule: Q01DX005 (ip), vehicle: saline 105 % of control | dose: 120.0 mg/kg/injection, schedule: Q01DX005 (ip), vehicle: saline 103 % of control | dose: 240.0 mg/kg/injection, schedule: Q01DX005 (ip), vehicle: saline 104 % of control

c1ccc2c(c1)c1c(c3ccccc32)CNCC1
inactive: dose: 3.12 mg/kg/injection, schedule: Q01DX005 (ip), vehicle: saline with Tween-80 97 % of control | [4] 95 % of control | [5] 101 % of control and 95 % of control | [1] 117 % of control

C=CCNc1ncnc2sc(SC)nc12
inactive: dose: 100.0 mg/kg/injection, schedule: Q04DX002 (ip), vehicle: distilled water + alcohol 100 % of control | dose: 200.0 mg/kg/injection, schedule: Q04DX002 (ip), vehicle: distilled water + alcohol 104 % of control | dose: 400.0 mg/kg/injection, schedule: Q04DX002 (ip), vehicle: distilled water + alcohol 99 % of control

C/C(=N\N=C(N)N)c1cccc(/C(C)=N/N=C(N)N)n1
inactive: dose: 6.25 mg/kg/injection, schedule: Q01DX009 (ip), vehicle: saline with Tween-80 101 % of control | [9] 110 % of control | [6] 90 % of control

COc1nc(N(C)C)c2cnn(C3CCCCO3)c2n1 (centres undefined)
inactive: dose: 12.5 mg/kg/injection, schedule: Q04DX002 (ip), vehicle: saline with Tween-80 102 % of control | dose: 25.0 mg/kg/injection, schedule: Q04DX002 (ip), vehicle: saline with Tween-80 97 % of control

c1ccc(-c2nc(-c3ccccc3)c3ccccc3n2)cc1
inactive: [9] 104 % of control | [6] 114 % of control | [7] 114 % of control

CCOC1=C(C)C(N(CC)CC)=NS(=O)(=O)c2ccccc21
inactive: dose: 100.0 mg/kg/injection, schedule: Q01DX001 (ip), vehicle: Klucel (hydroxypropylcellulose) (HPC) 99 % of control | dose: 200.0 mg/kg/injection, schedule: Q01DX001 (ip), vehicle: Klucel (hydroxypropylcellulose) (HPC) 103 % of control | dose: 400.0 mg/kg/injection, schedule: Q01DX001 (ip), vehicle: Klucel (hydroxypropylcellulose) (HPC) 98 % of control

O=c1c(-c2ccccc2)c(O)on1/C=C1/C=CC=N1
inactive: [6] 105 % of control | [7] 95 % of control | [8] 103 % of control
